Square brackets hold non-standard residues; d marks the D form. Peptide text beside a SMILES is read from it. Pro(cis-4-CF3) = O=C(O)[C@@H]1C[C@H](C(F)(F)F)CN1; Pro(trans-4-F) = O=C(O)[C@@H]1C[C@@H](F)CN1; Pro(4,4-F2) = O=C(O)[C@@H]1CC(F)(F)CN1; Dab(3S-OH) = NC[C@H](O)[C@H](N)C(=O)O; Met(O2) = CS(=O)(=O)CC[C@H](N)C(=O)O; Lys(iPr) = CC(C)NCCCC[C@H](N)C(=O)O; Met(O) = CS(=O)CC[C@H](N)C(=O)O; ΔZArg = N=C(N)NCC/C=C(\N)C(=O)O; dOrn = NCCC[C@@H](N)C(=O)O; hSer = N[C@@H](CCO)C(=O)O; Orn = NCCC[C@H](N)C(=O)O
How the values were obtained:
Experiment in all cases: MIC, broth microdilution (CLSI), reference strain
Details in all cases: CAMHB
[1] = tested on: Pseudomonas aeruginosa ATCC 27853
[2] = tested on: Escherichia coli ATCC 25922
[3] = tested on: Staphylococcus aureus ATCC 13709
[4] = tested on: Acinetobacter baumannii ATCC 19606

SMILES | Pa: MIC Pseudomonas aeruginosa ATCC 27853 [1] | Ec: MIC Escherichia coli ATCC 25922 [2] | Sa: MIC Staphylococcus aureus ATCC 13709 [3] | Ab: MIC Acinetobacter baumannii ATCC 19606 [4]
CC(C)NCCCC[C@H](NC(=O)[C@H](Cc1cnc[nH]1)NC(=O)[C@@H]1CCCN1C(=O)[C@@H](CCCN)NC(=O)CNC(=O)[C@H](C)NC(=O)[C@@H](NC(=O)[C@@H](N)CCCCN)[C@@H](O)CN)C(=O)N[C@H](CCCNC(=N)N)C(N)=O [24.127] (H-K[Dab(3S-OH)]AG[dOrn]PH[Lys(iPr)][dR]-NH2) | − (>32 μg/mL) | + (≤32 μg/mL) | ++ (≤8 μg/mL) | − (>32 μg/mL)
C[C@H](NC(=O)[C@@H](NC(=O)[C@@H](N)CCCCN)[C@@H](O)CN)C(=O)NCC(=O)N[C@H](CCCN)C(=O)N1CCC[C@H]1C(=O)N[C@@H](Cc1cnc[nH]1)C(=O)N[C@@H](CCCN)C(=O)N[C@H](CCCNC(=N)N)C(N)=O [24.128] (H-K[Dab(3S-OH)]AG[dOrn]PH[Orn][dR]-NH2) | − (>32 μg/mL) | − (>32 μg/mL) | ++ (≤8 μg/mL) | − (>32 μg/mL)
C[C@H](NC(=O)[C@@H](NC(=O)[C@@H](N)CCCCN)[C@@H](O)CN)C(=O)NCC(=O)N[C@H](CCCN)C(=O)N1CCC[C@H]1C(=O)N[C@@H](CCO)C(=O)N[C@@H](CCCCN)C(=O)N/C(=C\CCNC(=N)N)C(=O)O [24.129] (H-K[Dab(3S-OH)]AG[dOrn]P[hSer]K[ΔZArg]-OH) | − (>32 μg/mL) | − (>32 μg/mL) | − (>32 μg/mL) | − (>32 μg/mL)
COCC[C@H](NC(=O)[C@@H]1CCCN1C(=O)[C@@H](CCCN)NC(=O)CNC(=O)[C@H](C)NC(=O)[C@@H](NC(=O)[C@@H](N)CCCCN)[C@@H](O)CN)C(=O)N[C@@H](CCCCN)C(=O)N/C(=C\CCNC(=N)N)C(=O)O [24.130] (H-K[Dab(3S-OH)]AG[dOrn]P[hSer](Me)K[ΔZArg]-OH) | − (>32 μg/mL) | − (>32 μg/mL) | + (≤32 μg/mL) | − (>32 μg/mL)
CSCC[C@H](NC(=O)[C@@H]1CCCN1C(=O)[C@@H](CCCN)NC(=O)CNC(=O)[C@H](C)NC(=O)[C@@H](NC(=O)[C@@H](N)CCCCN)[C@@H](O)CN)C(=O)N[C@@H](CCCCN)C(=O)N/C(=C\CCNC(=N)N)C(=O)O [24.131] (H-K[Dab(3S-OH)]AG[dOrn]PMK[ΔZArg]-OH) | − (>32 μg/mL) | + (≤32 μg/mL) | + (≤32 μg/mL) | − (>32 μg/mL)
C[C@H](NC(=O)[C@@H](NC(=O)[C@@H](N)CCCCN)[C@@H](O)CN)C(=O)NCC(=O)N[C@H](CCCN)C(=O)N1CCC[C@H]1C(=O)N[C@@H](CC[S+](C)[O-])C(=O)N[C@@H](CCCCN)C(=O)N/C(=C\CCNC(=N)N)C(=O)O (stereo partly drawn) [24.132] (H-K[Dab(3S-OH)]AG[dOrn]P[Met(O)]K[ΔZArg]-OH) | − (>32 μg/mL) | − (>32 μg/mL) | − (>32 μg/mL) | − (>32 μg/mL)
C[C@H](NC(=O)[C@@H](NC(=O)[C@@H](N)CCCCN)[C@@H](O)CN)C(=O)NCC(=O)N[C@H](CCCN)C(=O)N1CCC[C@H]1C(=O)N[C@@H](CCS(C)(=O)=O)C(=O)N[C@@H](CCCCN)C(=O)N/C(=C\CCNC(=N)N)C(=O)O [24.133] (H-K[Dab(3S-OH)]AG[dOrn]P[Met(O2)]K[ΔZArg]-OH) | − (>32 μg/mL) | − (>32 μg/mL) | + (≤32 μg/mL) | − (>32 μg/mL)
C[C@H](NC(=O)[C@@H](NC(=O)[C@@H](N)CCCCN)[C@@H](O)CN)C(=O)NCC(=O)N[C@H](CCCN)C(=O)N1CCC[C@H]1C(=O)N[C@@H](Cc1ccccc1)C(=O)N[C@@H](CCCCN)C(=O)N/C(=C\CCNC(=N)N)C(=O)O [24.134] (H-K[Dab(3S-OH)]AG[dOrn]PFK[ΔZArg]-OH) | − (>32 μg/mL) | + (≤32 μg/mL) | ++ (≤8 μg/mL) | − (>32 μg/mL)
COC[C@H](NC(=O)[C@@H]1CCCN1C(=O)[C@@H](CCCN)NC(=O)CNC(=O)[C@H](C)NC(=O)[C@@H](NC(=O)[C@@H](N)CCCCN)[C@@H](O)CN)C(=O)N[C@@H](CCCCN)C(=O)N/C(=C\CCNC(=N)N)C(=O)O [24.136] (H-K[Dab(3S-OH)]AG[dOrn]PS(Me)K[ΔZArg]-OH) | − (>32 μg/mL) | − (>32 μg/mL) | − (>32 μg/mL) | − (>32 μg/mL)
C[C@H](NC(=O)[C@@H](NC(=O)[C@@H](N)CCCCN)[C@@H](O)CN)C(=O)NCC(=O)N[C@H](CCCN)C(=O)N1CCC[C@H]1C(=O)N[C@H](C(=O)N[C@@H](CCCCN)C(=O)N/C(=C\CCNC(=N)N)C(=O)O)[C@@H](C)O [24.137] (H-K[Dab(3S-OH)]AG[dOrn]PTK[ΔZArg]-OH) | − (>32 μg/mL) | − (>32 μg/mL) | + (≤32 μg/mL) | − (>32 μg/mL)
C[C@H](NC(=O)[C@@H](NC(=O)[C@@H](N)CCCCN)[C@@H](O)CN)C(=O)NCC(=O)N[C@H](CCCN)C(=O)N1CC(F)(F)C[C@H]1C(=O)N[C@@H](Cc1cnc[nH]1)C(=O)N[C@@H](CCCCN)C(=O)N/C(=C\CCNC(=N)N)C(=O)O [24.141] (H-K[Dab(3S-OH)]AG[dOrn][Pro(4,4-F2)]HK[ΔZArg]-OH) | − (>32 μg/mL) | − (>32 μg/mL) | ++ (≤8 μg/mL) | − (>32 μg/mL)
C[C@H](NC(=O)[C@@H](NC(=O)[C@@H](N)CCCCN)[C@@H](O)CN)C(=O)NCC(=O)N[C@H](CCCN)C(=O)N1C[C@H](F)C[C@H]1C(=O)N[C@@H](Cc1cnc[nH]1)C(=O)N[C@@H](CCCCN)C(=O)N/C(=C\CCNC(=N)N)C(=O)O [24.142] (H-K[Dab(3S-OH)]AG[dOrn][Pro(trans-4-F)]HK[ΔZArg]-OH) | − (>32 μg/mL) | + (≤32 μg/mL) | + (≤32 μg/mL) | − (>32 μg/mL)
C[C@H](NC(=O)[C@@H](NC(=O)[C@@H](N)CCCCN)[C@@H](O)CN)C(=O)NCC(=O)N[C@H](CCCN)C(=O)N1C[C@@H](C(F)(F)F)C[C@H]1C(=O)N[C@@H](Cc1cnc[nH]1)C(=O)N[C@@H](CCCCN)C(=O)N/C(=C\CCNC(=N)N)C(=O)O [24.143] (H-K[Dab(3S-OH)]AG[dOrn][Pro(cis-4-CF3)]HK[ΔZArg]-OH) | − (>32 μg/mL) | + (≤32 μg/mL) | ++ (≤8 μg/mL) | − (>32 μg/mL)
